ChEMBL document CHEMBL1201862, “PubChem BioAssay data set” (2004)
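Protocol summary: plate cells (96-well), add compound at 5 concentrations, incubate 48 h, interpolate endpoints linearly. Here, GI50 denotes the concentration required for 50% inhibition of growth.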 Activity calls are given as the source filed them. Rule as the data show it: active = GI50 up to about 1.1 µM and inactive = higher.

Key:
Assay in all cases: growth of human tumour cells (NCI), 48 h
[1] = tested on: 786-0
[2] = tested on: ACHN
[3] = tested on: COLO 205
[4] = tested on: DU-145
[5] = tested on: HCT-116
[6] = tested on: HCT-15
[7] = tested on: HOP-62
[8] = tested on: HT-29
[9] = tested on: MDA-N
[10] = tested on: NCI-H23
[11] = tested on: NCI-H522
[12] = tested on: NCI/ADR-RES
[13] = tested on: OVCAR-3
[14] = tested on: OVCAR-4
[15] = tested on: PC-3
[16] = tested on: RPMI-8226
[17] = tested on: SF-295
[18] = tested on: SK-MEL-28
[19] = tested on: SK-MEL-2
[20] = tested on: SW-620

| Compound | GI50 [1] | GI50 [2] | GI50 [3] | GI50 [4] | GI50 [5] | GI50 [6] | GI50 [7] | GI50 [8] | GI50 [9] | GI50 [10] | GI50 [11] | GI50 [12] | GI50 [13] | GI50 [14] | GI50 [15] | GI50 [16] | GI50 [17] | GI50 [18] | GI50 [19] | GI50 [20] |
| --- | --- | --- | --- | --- | --- | --- | --- | --- | --- | --- | --- | --- | --- | --- | --- | --- | --- | --- | --- | --- |
| CN(CCC(=O)O)S(=O)(=O)c1ccccc1 | > 100 µM (inactive) | > 100 µM (inactive) | > 100 µM (inactive) | > 100 µM (inactive) | > 100 µM (inactive) | > 100 µM | > 100 µM (inactive) | > 100 µM (inactive) | > 100 µM (inactive) | > 100 µM (inactive) | > 100 µM (inactive) | > 100 µM (inactive) | > 100 µM (inactive) | > 100 µM (inactive) | > 100 µM (inactive) | > 100 µM (inactive) | > 100 µM (inactive) | > 100 µM (inactive) | > 100 µM (inactive) | > 100 µM (inactive) |
| CCOC(=O)c1nc2c(nc1C(=O)OCC)C(=O)c1ccccc1C2=O | 0.839 µM (active) | 0.757 µM (active) | 1.82 µM (inactive) | 0.828 µM (active) | 0.875 µM (active) | 1.92 µM | 0.618 µM (active) | 2.5 µM (inactive) | 0.248 µM (active) | 0.31 µM (active) | 0.671 µM (active) | 1.17 µM (inactive) | 0.37 µM (active) | 0.637 µM (active) | 2.9 µM (inactive) | 0.753 µM (active) | 0.359 µM (active) | 1.03 µM (active) | 0.394 µM (active) | 0.881 µM (active) |
| NC(Cc1ccccc1)c1nccs1 (centres undefined) | > 100 µM (inactive) | > 100 µM (inactive) | > 100 µM (inactive) | > 100 µM (inactive) | > 100 µM (inactive) | > 100 µM | > 100 µM (inactive) | > 100 µM (inactive) | > 100 µM (inactive) | > 100 µM (inactive) | > 100 µM (inactive) | > 100 µM (inactive) | > 100 µM (inactive) | > 100 µM (inactive) | > 100 µM (inactive) | > 100 µM (inactive) | > 100 µM (inactive) | > 100 µM (inactive) | > 100 µM (inactive) | > 100 µM (inactive) |
| NC1CCCCC1.O=P(O)(O)C(O)/C=C/c1ccccc1 (centres undefined) | > 100 µM (inactive) | > 100 µM (inactive) | > 100 µM (inactive) | > 100 µM (inactive) | > 100 µM (inactive) | > 100 µM | > 100 µM (inactive) | > 100 µM (inactive) | > 100 µM (inactive) | > 100 µM (inactive) | > 100 µM (inactive) | > 100 µM (inactive) | > 100 µM (inactive) | > 100 µM (inactive) | > 100 µM (inactive) | > 100 µM (inactive) | > 100 µM (inactive) | > 100 µM (inactive) | > 100 µM (inactive) | > 100 µM (inactive) |
| S=C(Nc1ccc(Br)cn1)NC12CC3CC(CC(C3)C1)C2 | 8.05 µM (inactive) | 13.2 µM (inactive) | 62.2 µM (inactive) | 41.2 µM (inactive) | 10.7 µM (inactive) | 68.7 µM | 23.9 µM (inactive) | – | 15.8 µM (inactive) | 15.3 µM (inactive) | 11.2 µM (inactive) | 17.4 µM (inactive) | 46.3 µM (inactive) | 17.1 µM (inactive) | 17 µM (inactive) | 65.2 µM (inactive) | 17 µM (inactive) | 39 µM (inactive) | 22.3 µM (inactive) | 49.2 µM (inactive) |
| O=c1c2ccccc2[nH]n1Cc1ccccc1 | > 100 µM (inactive) | > 100 µM (inactive) | > 100 µM (inactive) | > 100 µM (inactive) | > 100 µM (inactive) | > 100 µM | > 100 µM (inactive) | > 100 µM (inactive) | > 100 µM (inactive) | > 100 µM (inactive) | > 100 µM (inactive) | > 100 µM (inactive) | > 100 µM (inactive) | > 100 µM (inactive) | > 100 µM (inactive) | > 100 µM (inactive) | > 100 µM (inactive) | > 100 µM (inactive) | > 100 µM (inactive) | > 100 µM (inactive) |
| CCCCCCCCCC(O)CC(=O)c1c(O)cccc1O (centres undefined) | 19.1 µM (inactive) | 24.1 µM (inactive) | 30.1 µM (inactive) | 38 µM (inactive) | 20.1 µM (inactive) | 18.2 µM | 16 µM (inactive) | 19.5 µM (inactive) | 22 µM (inactive) | 22 µM (inactive) | 19 µM (inactive) | 18.4 µM (inactive) | 21.9 µM (inactive) | 16.7 µM (inactive) | 18.7 µM (inactive) | 20.6 µM (inactive) | 19.4 µM (inactive) | 41.5 µM (inactive) | 18.4 µM (inactive) | 39.5 µM (inactive) |
| CC(=O)N1N=C(c2ccc3ccccc3c2O)CC1c1ccc(Cl)cc1Cl (centres undefined) | 18.9 µM (inactive) | 29.6 µM (inactive) | 28.3 µM (inactive) | > 100 µM (inactive) | 16.7 µM (inactive) | 56.9 µM | 31.9 µM (inactive) | 28.7 µM (inactive) | 24.4 µM (inactive) | > 100 µM (inactive) | 25.7 µM (inactive) | 57.7 µM (inactive) | 15.6 µM (inactive) | 33.1 µM (inactive) | 17.1 µM (inactive) | 17.3 µM (inactive) | 31.6 µM (inactive) | 93.1 µM (inactive) | > 100 µM (inactive) | 26.9 µM (inactive) |
| COc1cc(O)c2c(=O)cc(C3(OC(C)=O)C=CC(OC4OC(CO)C(O)C(O)C4O)C=C3)oc2c1 (centres undefined) | > 100 µM (inactive) | > 100 µM (inactive) | > 100 µM (inactive) | > 100 µM (inactive) | > 100 µM (inactive) | > 100 µM | > 100 µM (inactive) | > 100 µM (inactive) | > 100 µM (inactive) | > 100 µM (inactive) | > 100 µM (inactive) | > 100 µM (inactive) | > 100 µM (inactive) | > 100 µM (inactive) | > 100 µM (inactive) | > 100 µM (inactive) | > 100 µM (inactive) | > 100 µM (inactive) | > 100 µM (inactive) | > 100 µM (inactive) |
| O=C(NCCN1CCCCC1)c1ccc(Br)cc1 | > 100 µM (inactive) | > 100 µM (inactive) | > 100 µM (inactive) | > 100 µM (inactive) | > 100 µM (inactive) | > 100 µM | > 100 µM (inactive) | > 100 µM (inactive) | > 100 µM (inactive) | > 100 µM (inactive) | > 100 µM (inactive) | > 100 µM (inactive) | > 100 µM (inactive) | > 100 µM (inactive) | > 100 µM (inactive) | > 100 µM (inactive) | > 100 µM (inactive) | > 100 µM (inactive) | > 100 µM (inactive) | > 100 µM (inactive) |
| CCN(CCCl)CCCCNc1c2ccccc2nc2ccc(OC)cc12 | 0.157 µM (active) | 0.178 µM (active) | 0.258 µM (active) | 0.336 µM (active) | 0.0542 µM (active) | 0.752 µM | 0.439 µM (active) | 0.13 µM (active) | 0.676 µM (active) | 0.276 µM (active) | 0.208 µM (active) | 4.25 µM (inactive) | 1.15 µM (inactive) | 0.7 µM (active) | 0.216 µM (active) | 0.0535 µM (active) | 0.259 µM (active) | 1.58 µM (inactive) | 0.662 µM (active) | 0.0664 µM (active) |
